Holding throughout (format): cell-based
Assay [1] deals with murine neuroblastoma cells (MNA). Description: Inhibition of cell proliferation (ICP) assay, MNA. The method, then: The plate-grown biomass of the fungal pure cultures (100–300 mg) was extracted with ethanol as described earlier. The toxicity assays, namely BSMI assay after exposure for 30 min (rapid inhibition) and for one day (slow inhibition), SMID assay and ICP assay, were all described previously. The toxicity assays involving the ethanol extracts obtained from pure fungal cultures were performed using porcine cells (sperms and somatic cell lines) as indicators according to methods described before. The calculation of EC50—the half maximal effective concentration for the ethanol-dry substances and pure mycotoxins in the BSMI, SMID and ICP assays—were described previously.
The continuous cell line PK-15 (porcine kidney cells) and a malignant cell line (MNA cell line) provided by EVIRA (Helsinki, Finland) were used in the ICP assay. 5,5′,6,6′-tetrachloro-1,1′,3,3′-tetraethyl-benzimidazolylcarbocyanine iodide (JC-1, 3520-43-2), PI (25535-16-4) and calcein-AM (148504-34-1) were obtained from Invitrogen (Carlsbad, CA, USA). Alamethicin A4665 (T. arundinaceum) (CAS 27061-78-5), a mixture of alamethicin F50 peptaibols (MW 1962, 1976, 1976 and 1990), chaetoglobosin A (CAS 50335-03-0), sterigmatocystin (CAS 10048-13-5) and ochratoxin A (CAS 303-47-9) were obtained from Sigma-Aldrich (St. Louis, MO, USA). Malt extract and tryptic soy agar were obtained from Scharlab (Barcelona, Spain). The other chemicals were of analytical grade and were purchased from local suppliers. The biocides and the wetting agent Genapol-080 were purchased from Sigma-Aldrich Finland. The fungicide Boracol 10Rh was obtained from a local supplier. The selected biocides were Borax (600 µg mL^−1; sodium tetraborate, CAS: 1330-43-4), Boracol 10Rh containing disodium octaborate tetrahydrate (CAS: 12280-03-04) and didecyldimethylammonium chloride [CAS: 7173-51-5]), PHMB (CAS: 27083-27-8), phenoxyethanol (CAS: 122-99-6), chloramine, triclosan (5-Chloro-2-(2,4-dichlorophenoxy)phenol, CAS: 3380-34-5) and the wetting agent Genapol X-080 (CAS: 9043-30-5). Genapol X-080 and the biocides were purchased from Sigma-Aldrich, except for Boracol 10Rh, which was purchased from a local supplier.

Assay [2] deals with porcine kidney cells (PK-15). Description: cells.
For assay [3], the system named is Indoor Trichoderma atroviride KIV10. As to the kind of experiment: Resistance to biocides: conidial germination. The conditions noted are these: strain KIV10, indoor Trichoderma atroviride. The method, then: (§1) The toxicity of biocides and chemicals towards the indoor Chaetomium-like isolates and the reference indoor strains of the genera Aspergillus, Paecilomyces, Penicillium and Trichoderma was assessed in parallel with the six parameters presented in the Supplementary Materials: (1) germ tube assay (Figure S3); (2) estimation of turbidity (Figure S4); (3) visual emission of fluorescence (excitation at 360 nm); (4) visual resporulation of conidia; (5) inhibition of glucose consumption; and (6) resazurin reduction. All assays were performed in malt extract broth (12 g L^−1 malt extract, 7.2 µmol mL^−1 glucose, pH 5.5; Scharlab, Barcelona, Spain) in 96-well microtiter plates as described for the ICP assay.
(§2) The assays measuring inhibition of germination of conidia were done with spore suspensions of 1–2 × 10^6 fungal spores mL−^1. The tests were performed in malt extract broth (Oxoid, Hampshire United Kingdom) 12 g in 1 L, pH 5.5, glucose 7.1 mmol L^−1, and performed on microtiter plates as described by Bencsik et al. for the ICP assay. The germ tube germination is visualized in Figure S3, and the tests estimating turbidity and emission of fluorescence provoked by the germinated and metabolically active conidia and C. globosum ascospores are visualized in Figures S4 and S5. Examples of the tests estimating fluorescence emission, turbidity and re-sporulation of conidia and ascospores are compared in Figure S5. The difference of the endpoints measured with the different assays was between […]. The resazurin reduction assays (Figure S6) were performed as described for the ICP assay, except that the microtiter plates were visually inspected for the change of the blue/violet color of resazurin (indicating inhibition of germination of the exposed conidia) to the […] (indicating metabolic activity and germination of the exposed conidia).
(§3) The formation of germ tubes was inspected by a phase-contrast microscope (Olympus CKX41, Tokyo, Japan; magnification 400×) and an image recording software (Cellsense® standard version 11.0.06, Olympus Soft Imaging Solutions GmbH, Münster, Germany, 2012) after 1 and 2 days of incubation at 28 °C. The EC50 corresponded to the inhibition of 50% (estimated as the concentration between EC0 and EC100) of the conidia compared to the ethanol control (the growth medium containing 1% of ethanol). The tests were run in triplicate and calibrated with triclosan (CAS: 3380-34-5; Sigma Chemical Co., St. Louis, MO, USA) giving a mean SD of ±<20%.

The test system of the next assay is Penicillium sp. 26/skk. As to the kind of experiment: Resistance to biocides: conidial germination. As to conditions: strain 26/skk, indoor Penicillium sp. On the procedure:
as §1, §2, §3

In assay [4] the test system is Aspergillus westerdijkiae PP3. As to the kind of experiment: Resistance to biocides: conidial germination. As to conditions: strain PP3, Aspergillus westerdijkiae. On the procedure: as §1, §2, §3
Assay [5] relates to Indoor Trichoderma atroviride Ke14. As to the kind of experiment: Resistance to biocides: conidial germination. The conditions noted are these: strain Ke14, indoor Trichoderma atroviride. The method, then:
as §1, §2, §3

Assay [6] relates to Trichoderma citrinoviride SJ40. Description: Resistance to biocides: conidial germination. As to conditions: strain SJ40, indoor Trichoderma citrinoviride. The method, then:
as §1, §2, §3

The test system of assay [7] is Indoor Trichoderma atroviride 14/AM. As to the kind of experiment: Resistance to biocides: conidial germination. The conditions noted are these: strain 14/AM. On the procedure: as §1, §2, §3
Assay [8] concerns Indoor Trichoderma atroviride Tri7A/SKK. Description: Resistance to biocides: conidial germination. As to conditions: strain Tri7A/SKK. On the procedure:
as §1, §2, §3

For assay [9], the system named is Aspergillus section Nigri Asp33b. Description: Resistance to biocides: conidial germination. The conditions noted are these: strain Asp33b, indoor Aspergillus section Nigri. On the procedure: as §1, §2, §3
The next assay relates to Penicillium sp. HJ2. Description: Resistance to biocides: conidial germination. As to conditions: strain HJ2, indoor Penicillium sp. On the procedure: as §1, §2, §3
Assay [10] relates to Paecilomyces sp. Pec1/his. As to the kind of experiment: Resistance to biocides: conidial germination. As to conditions: strain Pec1/his, indoor Paecilomyces sp. On the procedure: as §1, §2, §3
In assay [11] the test system is Indoor Trichoderma atroviride Tri335. Description: Resistance to biocides: conidial germination. The conditions noted are these: strain Tri335, indoor Trichoderma atroviride. The method, then:
as §1, §2, §3

The subject of assay [12] is Aspergillus westerdijkiae PP2. As to the kind of experiment: Resistance to biocides: conidial germination. As to conditions: strain PP2, Aspergillus westerdijkiae. The method, then:
as §1, §2, §3

[13] abbreviates: Mus musculus, Neuroblastoma cell, mammalian cell line MNA (ICT assay), read-out: EC50.
Setting [14] is: Sus scrofa, mammalian cell line PK-15 (ICT assay), read-out: EC50.
Where [15] appears, read: mammalian cell line MNA (ICT assay).
Where [16] appears, read: mammalian cell line PK-15 (ICT assay).

≈ marks a conversion by molar mass, not a printed value. Where two headings read alike, the source gives them in different places.

`C/C1=C\[C@@H](C)C/C=C/[C@H]2[C@@H]3O[C@]3(C)[C@@H](C)[C@H]3[C@H](Cc4c[nH]c5ccccc45)NC(=O)[C@]32C(=O)/C=C/C(=O)[C@@H]1O` [Chaetoglobosin A, chaetoglobosin A]: the concentration for a half-maximal effect (EC50) – broadly, the concentration at which the effect is half-maximal – in assay [1] (Mus musculus, Neuroblastoma cell, 48 h, MNA, 2 days, 37 °C, read-out: EC50 ICP MNA 2 days) is 1 µg/mL (≈ 1.89 µM); in [2] (Sus scrofa, 48 h, PK-15, 2 days, 37 °C, read-out: EC50 ICP PK-15 2 days), 3 µg/mL (≈ 5.67 µM).

Regarding `OCCOc1ccccc1` [Phenoxy-ethanol, phenoxyethanol], the half-maximal effective concentration (EC50) in assay [3] (read-out: EC50) stood at 3000 µg/mL (≈ 21700 µM); with Penicillium sp. 26/skk (SP.26/SKK, read-out: EC50), 3000 µg/mL (≈ 21700 µM); in assay [4] (read-out: EC50) it was 1500 µg/mL (≈ 10900 µM); in assay [5] (read-out: EC50), 1500 µg/mL (≈ 10900 µM); in assay [6] (read-out: EC50), 1500 µg/mL (≈ 10900 µM); in [7] (read-out: EC50) it was 3000 µg/mL (≈ 21700 µM). Besides, the EC50 in assay [8] (read-out: EC50) stood at 1500 µg/mL (≈ 10900 µM); in assay [9] (read-out: EC50) it was 3000 µg/mL (≈ 21700 µM); in the assay with Penicillium sp. HJ2 (read-out: EC50), 800 µg/mL (≈ 5790 µM); in assay [10] (read-out: EC50) it was 3000 µg/mL (≈ 21700 µM); in [11] (read-out: EC50), 3000 µg/mL (≈ 21700 µM); in [12] (read-out: EC50), 1500 µg/mL (≈ 10900 µM). Besides, the concentration giving a half-maximal response (EC50) in assay [1] (setting [13]) was found to be 400 µg/mL (≈ 2900 µM); in [2] (setting [14]), 1500 µg/mL (≈ 10900 µM).

For the compound “polyhexamethylene biguanide hydrochloride [PHMB]”, the EC50 stood at 4 µg/mL in assay [3]; 30 µg/mL in the assay with Penicillium sp. 26/skk; 60 µg/mL in assay [4]; 4 µg/mL in assay [5]; 2 µg/mL in [6]; 4 µg/mL in assay [7]. For the same compound, the EC50 in [8] amounted to 8 µg/mL; in [9], 30 µg/mL; in the assay with Penicillium sp. HJ2 it was 1 µg/mL; in assay [10], 30 µg/mL; in assay [11], 4 µg/mL; in assay [12], 60 µg/mL. The half-maximal effective concentration (EC50) in assay [1] (setting [15]) was 4 µg/mL; in assay [2] (setting [16]) it was 15 µg/mL.

For `O=BOB(O)OB(O)OB=O` [Borax, sodium tetraborate], the concentration for a half-maximal effect (EC50) in [3] (read-out: EC50) was 2500 µg/mL; in the assay with Penicillium sp. 26/skk (SP.26/SKK, read-out: EC50) it was above 5000 µg/mL; in assay [4] (read-out: EC50), 5000 µg/mL; in assay [5] (read-out: EC50), 1200 µg/mL; in [6] (read-out: EC50) it was 1200 µg/mL; in [7] (read-out: EC50), 1200 µg/mL. In addition, the EC50 in [8] (read-out: EC50) was 1200 µg/mL; in assay [9] (read-out: EC50), at least 5000 µg/mL; in the assay with Penicillium sp. HJ2 (read-out: EC50) it was 2500 µg/mL; in [10] (read-out: EC50), at least 5000 µg/mL; in assay [11] (read-out: EC50) it was 2500 µg/mL; in [12] (read-out: EC50), 5000 µg/mL. Also, the EC50 in assay [1] (setting [13]) was determined as 150 µg/mL; in assay [2] (setting [14]) it was 600 µg/mL.

Consider `NCl` [Chloramine, chloramine], for which the EC50 in assay [3] was found to be 2400 µg/mL (≈ 46600 µM); with Penicillium sp. 26/skk, 600 µg/mL (≈ 11700 µM); in assay [4], 600 µg/mL (≈ 11700 µM); in assay [8], 2500 µg/mL (≈ 48600 µM); in assay [12], 600 µg/mL (≈ 11700 µM); in assay [1] (setting [15]), 80 µg/mL (≈ 1550 µM). Moreover, the concentration giving a half-maximal response (EC50) in [2] (setting [16]) is 150 µg/mL (≈ 2910 µM).

Consider `Oc1cc(Cl)ccc1Oc1ccc(Cl)cc1Cl` [Triclosan, 5-Chloro-2-(2,4-dichlorophenoxy)phenol], for which the EC50 in assay [3] (read-out: EC50) was 30 µg/mL (≈ 104 µM); in the assay on Penicillium sp. 26/skk (SP.26/SKK, read-out: EC50), 30 µg/mL (≈ 104 µM); in [4] (read-out: EC50), 16 µg/mL (≈ 55.3 µM); in assay [5] (read-out: EC50) it was 16 µg/mL (≈ 55.3 µM); in assay [6] (read-out: EC50) it was 8 µg/mL (≈ 27.6 µM); in [7] (read-out: EC50), 30 µg/mL (≈ 104 µM). Also, the EC50 stood at 16 µg/mL (≈ 55.3 µM) in assay [8] (read-out: EC50); 16 µg/mL (≈ 55.3 µM) in assay [9] (read-out: EC50); 8 µg/mL (≈ 27.6 µM) with Penicillium sp. HJ2 (read-out: EC50); 30 µg/mL (≈ 104 µM) in assay [10] (read-out: EC50); 30 µg/mL (≈ 104 µM) in assay [11] (read-out: EC50); 16 µg/mL (≈ 55.3 µM) in assay [12] (read-out: EC50). In addition, the EC50 in assay [1] (setting [13]) lay within 4 to 8 µg/mL (≈ 13.8 to 27.6 µM); in [2] (setting [14]) it was 8 to 15 µg/mL (≈ 27.6 to 51.8 µM).

Values taken from article PMC7405012, “Detection of Chaetomium globosum, Ch. cochliodes and Ch. rectangulare during the Diversity Tracking of Mycotoxin-Producing Chaetomium-like Isolates Obtained in Buildings in Finland” (Toxins, 2020).
